{"source": "patent US20250340604A1", "about": "“BLOOD-BRAIN BARRIER TRANSLOCATING PEPTIDES AND RELATED MOLECULES AND METHODS OF USE THEREOF” (Enkefalos Biosciences, Inc., priority 2022, published 2025)", "key": {"[1]": {"conditions": "monovalent trastuzumab knob-hole cyclotide fusions, 25 mg/kg, 24 hours, brain homogenate ELISA, versus trastuzumab alone; FIG. 8B", "experimental": "Female C57BL/6 mice, age 10-12 weeks, were weighed and administered purified trastuzumab antibody or trastuzumab antibody-monovalent cyclotide fusions, made monovalent by knobs-holes fusion (targeting IGF1R, LRP1, or RAGE receptors) in triplicate at 25 mg/kg in phosphate buffered saline (PBS). After 24 hours, mice were perfused with Dulbecco's PBS containing anesthetic via aortic puncture and brains were removed. One brain hemisphere was transferred to 4% paraformaldehyde in PBS for 24 hours at 4° C., then transferred to PBS at 4° C., paraffin embedded, thin-sectioned using a microtome, and slices were mounted on slides for immunohistochemistry (IHC). The other brain hemisphere was flash frozen and stored at −80° C. prior to homogenization. […]\nAntibodies present in brain were quantified by enzyme-linked immunosorbent assay (ELISA). […] Plates were washed 4 times with TBST and once with TBS, developed with 3,3′,5,5′-tetramethylbenzidine (TMB) for 2 minutes, quenched with 1 N sulfuric acid, and read at 450 nm in a SpectraMax plate reader. […] Amounts of antibodies (e.g., antibody fusion proteins or antibody alone) present in brain homogenates were determined by interpolation from each standard curve and were expressed as percents of injected dose per gram of brain (FIG. 8B)."}, "[2]": {"conditions": "mouse, even after repeat dose; cited from earlier work"}, "[3]": {"conditions": "rat, even after repeat dose; cited from earlier work"}, "[4]": {"target": "T1, human transferrin receptor (hTfR) (Homo sapiens, UniProt P02786)", "T1 construct": "expressed in transfected cells; host or cells: HEK293F", "T1 sequence (P02786 whole entry)": "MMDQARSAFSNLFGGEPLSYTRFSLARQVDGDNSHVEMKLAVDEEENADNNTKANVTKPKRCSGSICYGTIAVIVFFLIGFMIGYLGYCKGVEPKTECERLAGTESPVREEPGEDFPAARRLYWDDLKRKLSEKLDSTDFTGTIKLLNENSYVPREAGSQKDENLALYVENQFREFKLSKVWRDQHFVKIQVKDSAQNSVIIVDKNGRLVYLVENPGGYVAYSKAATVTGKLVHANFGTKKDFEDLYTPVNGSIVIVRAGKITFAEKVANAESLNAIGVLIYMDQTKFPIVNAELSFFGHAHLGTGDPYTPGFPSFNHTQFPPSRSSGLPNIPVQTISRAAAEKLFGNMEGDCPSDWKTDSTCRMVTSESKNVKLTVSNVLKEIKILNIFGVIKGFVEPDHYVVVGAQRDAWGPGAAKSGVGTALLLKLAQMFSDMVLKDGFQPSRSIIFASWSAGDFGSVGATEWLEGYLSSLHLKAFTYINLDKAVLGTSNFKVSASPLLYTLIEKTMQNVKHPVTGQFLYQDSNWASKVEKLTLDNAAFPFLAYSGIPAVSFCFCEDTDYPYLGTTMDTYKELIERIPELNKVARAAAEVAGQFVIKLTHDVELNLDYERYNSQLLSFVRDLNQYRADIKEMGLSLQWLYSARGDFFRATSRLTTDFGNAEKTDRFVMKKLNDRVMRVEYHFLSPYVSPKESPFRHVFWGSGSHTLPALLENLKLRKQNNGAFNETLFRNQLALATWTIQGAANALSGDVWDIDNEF", "assay": "Flow cytometry internalization assay, hTfR-expressing HEK293F cells", "type": "cell-based", "conditions": "50 nM Alexafluor 488 labeled protein, 4 h at 37° C., HEK293F cells transfected with hTfR; FIG. 2", "description": "(§1) Free dye was then removed by passage through one to two desalting columns. HEK293F cells were first serially passaged two to three times, then transfected with expression constructs encoding human or mouse transferrin receptor ([…], respectively), and grown for 2-3 days at 37° C., 8% CO2, 130 rpm shaking in preparation for the assay. […] Cells were then pelleted, supernatant discarded, and resuspended in 40 μL fresh media containing 250 nM anti-488 quenching antibody (or media lacking 488 quenching antibody as a control), incubated on ice for 5 min, pelleted, supernatant discarded, washed with 200 μL cold FACS buffer, pelleted, supernatant discarded, and resuspended in 200 μL cold FACS buffer. Each sample was then subjected to FACS analysis using the FITC fluorescence detection channel, using Gate 1 (forward scatter linear vs. side scatter linear) to select live cells with normal morphology, using Gate 2 (side scatter area vs. side scatter linear) to select single cells, and measuring logarithmic FITC signal for 20,000-50,000 cells per sample. Subsequent data analysis was carried out using the FlowJo software package."}, "[5]": {"target": "T2, mouse transferrin receptor (mTfR) (Mus musculus, UniProt Q62351)", "T2 construct": "expressed in transfected cells; host or cells: HEK293F", "T2 sequence (Q62351 whole entry)": "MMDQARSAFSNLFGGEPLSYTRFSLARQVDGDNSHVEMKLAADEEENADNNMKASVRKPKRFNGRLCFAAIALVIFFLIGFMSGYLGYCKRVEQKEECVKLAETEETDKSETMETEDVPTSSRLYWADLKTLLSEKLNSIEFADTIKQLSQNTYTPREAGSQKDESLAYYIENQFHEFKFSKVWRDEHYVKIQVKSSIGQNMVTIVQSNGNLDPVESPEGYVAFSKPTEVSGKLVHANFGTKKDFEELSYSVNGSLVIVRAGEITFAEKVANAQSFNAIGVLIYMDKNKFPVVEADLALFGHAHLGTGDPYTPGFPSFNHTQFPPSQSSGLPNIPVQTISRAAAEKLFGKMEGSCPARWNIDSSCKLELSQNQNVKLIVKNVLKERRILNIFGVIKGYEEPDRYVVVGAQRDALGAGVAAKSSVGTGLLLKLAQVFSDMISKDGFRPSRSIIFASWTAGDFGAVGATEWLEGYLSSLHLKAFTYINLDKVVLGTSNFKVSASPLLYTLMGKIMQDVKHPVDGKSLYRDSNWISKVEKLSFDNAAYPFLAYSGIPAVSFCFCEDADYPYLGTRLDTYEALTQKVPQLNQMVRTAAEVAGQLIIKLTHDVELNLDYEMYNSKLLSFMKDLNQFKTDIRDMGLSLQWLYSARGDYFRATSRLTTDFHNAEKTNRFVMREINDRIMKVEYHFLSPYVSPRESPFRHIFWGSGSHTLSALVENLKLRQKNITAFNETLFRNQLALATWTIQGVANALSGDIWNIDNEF", "assay": "Flow cytometry internalization assay, mTfR-expressing HEK293F cells", "type": "cell-based", "conditions": "50 nM Alexafluor 488 labeled protein, 4 h at 37° C., HEK293F cells transfected with mTfR; FIG. 2", "description": "as §1"}}, "note": "Like-named read-outs stand apart in the source and are kept apart here. Ends that are not written are not given here."}
{"substance": "cyclotide binding Hu LRP-1; loop 1 peptide WYETKTKLYVGVVK (SEQ ID NO:43); cyclotide SEQ ID NO:89 (GGVCWYETKTKLYVGVVKCRRDSDCPGACICRGNGYCGSGSD; not fully specified (bridges); cysteine pairing not given here) [CYC34]", "values": [{"measurement": "trastuzumab delivery to the brain (percents of injected dose per gram of brain)", "setting": "[1]", "value": "greatest enhancement"}]}
{"substance": "cyclotide binding Hu LRP-1; loop 1 peptide WLTLGIANKGIDVYDVK (SEQ ID NO:39); cyclotide SEQ ID NO:85 (GGVCWLTLGIANKGIDVYDVKCRRDSDCPGACICRGNGYCGSGSD; not fully specified (bridges); cysteine pairing not given here) [CYC30]", "values": [{"measurement": "trastuzumab delivery to the brain (percents of injected dose per gram of brain)", "setting": "[1]", "value": "did not exhibit enhancement"}]}
{"substance": "Ziconitide", "values": [{"measurement": "anti-drug antibodies (ADAs)", "setting": "[2]", "value": "no anti-drug antibodies (ADAs) were detectable"}, {"measurement": "anti-drug antibodies (ADAs)", "setting": "[3]", "value": "no anti-drug antibodies (ADAs) were detectable"}]}
{"substance": "adalimumab", "values": [{"measurement": "internalization (mean FITC fluorescence intensity)", "setting": "[4]", "value": "not"}, {"measurement": "internalization (mean FITC fluorescence intensity)", "setting": "[5]", "value": "not"}]}
